Read-outs that look alike come from different tables or passages of the source.
Legend:
[1] = test system: Mitochondrial Membrane Potential; experiment: cells; details: for EC10, linear / logEC10: MMP bioassay, dosing range all; for EC10, linear: linear model; for logEC10: log-logistic model; for Specificity ratio (SRbaseline) SRMMP: against baseline cytotoxicity; for log(1/EC10) MMP: input of the ToxPi score, values up to 1.00; for Relative effect potency REPMMP: relative to BPA
Source text: All bioassay media components and the ERα-UAS-bla GripTite and PPARγ-UAS-bla cells were obtained from Thermo Fisher Scientific (Waltham, MA, USA). AREc32 reporter gene cells based on MCF7 were provided by C. Roland Wolf (Cancer Research UK); AhR CALUX cells (H4L7.5c2 derived from H4IIe) were provided by Michael Denison (UC Davis, USA); and SH-SY5Y cells were purchased from Sigma-Aldrich.
(§1) Cell culture conditions and bioassay protocols including response detection are provided in Text S2.1–2.4 and Table S3. − Cell viability was determined from cell confluency using an IncuCyte S3 Live-Cell Analysis System (Sartorius AG, Essen, Germany) before and after exposure, except for SH-SY5Y cells (live–dead staining with Nuclear Green LcS1 and propidium iodide, Abcam, UK). For metabolic activation experiments, cell viability was assessed using the ToxBLAzer DualScreen Kit (Thermo Fisher Scientific) to capture the remaining toxicity in ERα-UAS-bla GripTite after treatment with the aCYP catalyst (details in Text S2.4).
For ARE, the concentration that triggered an induction ratio of 1.5 (ECIR1.5) was used as the benchmark value, as detailed in Text S2.5. IC10 values also served as a threshold for data analysis in all assays; only concentrations below IC10 were considered when deriving EC10 or ECIR1.5. […]
S2: Cell culture and bioassays
S2.1: Cell Culturing Conditions
All suppliers and sources are given in detail in SI-Excel S3. The bioassay media for the different assays were prepared as follows: Assay medium for ER alpha-UAS-bla GripTite (ERα) and […]
2% charcoal-stripped FBS, and 100 U/mL penicillin-streptomycin. MitoOxTox and AhR assay medium was comprised of 90% DMEM with GlutaMAX, supplemented with 10% FBS, and 100 U/mL penicillin-streptomycin. […]
(§2) S2.2: Cell Seeding and Incubation. For all bioassays, cell suspensions in the respective assay medium were dispensed into each well of 384-well plates using a MultiFlo Dispenser (Biotek, (now Agilent), Winooski, VT, U.S.). After seeding, the plates were incubated at 37° C and 5% CO₂ for […]. The final cell densities and plate types were as follows: Black poly-D-lysine […]
(§3) 6500 cells/well, ERα: 5000 cells/well. White 384-well plates with a clear bottom (Product No.
(§4) NYC, U.S.) for AhR: 3250 cells/well. Black Collagen I coated plates were used (Product No.
(§5) S2.3: Chemical Dosing and Assay Analysis Procedures. The dosing procedure and high-throughput assay workflow have been described in detail before. 9 The dosing concentrations […]
Stock solutions were then either

[2] = test system: MCF7 (ARE/MMP); details: for IC10, linear / logIC10 / IC10, linear transformed: dosing range all; for IC10, MCF7, ARE: MCF7, ARE readout; for IC10, MCF7, MMP: MCF7, MMP readout
Procedure: as §1
(§6) For ARE, the concentration that triggered an induction ratio of 1.5 (ECIR1.5) was used as the benchmark value, as detailed in Text S2.5. IC10 values also served as a threshold for data analysis in all assays; only concentrations below IC10 were considered when deriving EC10 or ECIR1.5.
(§7) We measured the cytotoxicity of BPA and its alternatives in HEK293H (PPARγ), HEK293T (ERα), H4IIe (AhR CALUX), MCF7 (ARE/MMP), and differentiated SH-SY5Y cells (Table S6). […]
as §2, §3, §4, §5
(§8) Stock solutions were then either added directly to the respective cell culture medium or evaporated under nitrogen, followed by replenishment with fresh medium. The final solvent content in each well was kept below 1% for methanol, 0% for acetonitrile.
(§9) Dosing plates were prepared as 11 -step serial dilutions using a Hamilton Microlab Star robotic system (Hamilton, Bonaduz, Switzerland), and chemicals were dosed in duplicates by transferring 10 μL twice from the dosing plates to the cell plates . After quantifying cell confluency as described in S2. 4., the exposed cells were incubated at 37° C and 5% CO₂ for an additional 24 h. All chemicals were tested in all assays with at least three independent […]
(§10) S2.4: Cell Viability Measurement s and bioanalytical protocols . The confluency as a measure of cell viability was determined with an IncuCyte S3 Live -Cell Analysis System (Sartorius AG, Essen, Germany). With this method the confluency of cells in a microscopy image are normalized to control wells without cells and compared before and after 24 hours of exposure.
(§11) This method has been described previously 13. […]

[3] = test system: HEK293T (ERα); details: for IC10, HEK293, ERα: HEK293 (ERα assay cells)
Procedure: as §1, §6, §7, §2, §3, §4, §5, §8, §9, §10, §11

[4] = test system: H4IIe (AhR CALUX); details: for Toxic ratio (TR) TRAhR: against baseline cytotoxicity; for IC10, H4IIe, AhR: H4IIe (AhR assay cells)
Procedure: as §1, §6, §7, §2, §3, §4, §5, §8, §9, §10, §11

[5] = test system: HEK293H (PPARγ); details: for IC10, linear: linear model; for IC10, HEK293, PPARγ: cytotoxicity, HEK293 (PPARγ assay cells)
Procedure: as §1, §6, §7, §2, §3, §4, §5, §8, §9, §10, §11

[6] = Bioassay ARE, cytotoxicity, linear model fit
[7] = Bioassay ARE, cytotoxicity, log-logistic model fit
[8] = MMP bioassay cytotoxicity, linear model
[9] = MMP bioassay cytotoxicity, log-logistic model
[10] = Bioassay AhR, cytotoxicity, dosing range all
[11] = Bioassay AhR, cytotoxicity, dosing range all, linear model fit
[12] = Bioassay AhR, cytotoxicity, dosing range all, log-logistic model fit
[13] = PPARγ bioassay cytotoxicity, dosing range all
[14] = PPARγ bioassay cytotoxicity, dosing range all, log-logistic model
[15] = Arec32, read-out: EC10, MMP (M)
[16] = Arec32, read-out: EC10, linear transformed
[17] = Bioassay ERα, cytotoxicity, dosing range all
[18] = Bioassay ERα, cytotoxicity, dosing range all, linear model fit
[19] = Bioassay ERα, cytotoxicity, dosing range all, log-logistic model fit

Structure (SMILES)	EC10, linear [1]	IC10, linear [2, 6]	logIC10 [2, 7]	IC10, linear [2, 8]	logIC10 [2, 9]	IC10, linear transformed [4, 10]	IC10, linear [4, 11]	logIC10 [4, 12]	IC10, H4IIe, AhR ([4]; cytotoxicity) [µM]	IC10, linear transformed [5, 13]	IC10, linear [5, 13]	logIC10 [5, 14]	EC10 ([1]; Arec32, read-out: EC10, MMP) [M]	EC10 [1, 15] [M]	EC10 ([1]; Arec32, read-out: EC10, linear) [M]	EC10 [1, 16] [M]	EC10 ([1]; Arec32, read-out: logEC10) [M]	IC10, linear transformed ([2]; Bioassay ARE, cytotoxicity)	IC10, HEK293, ERα ([3]; cytotoxicity) [µM]	IC10, HEK293, PPARγ [5] [µM]	other results
CC1(C)C(O)C(C)(C)C1O (racemic) [r-TMCD, 2,2,4,4-Tetramethyl-1,3-cyclobutanediol (racemate)]	no effect	no cytotoxicity	no cytotoxicity	no cytotoxicity	no cytotoxicity	9.14E-03	8.29E-03	-2.04	8290	6.71E-03	no cytotoxicity	no cytotoxicity	–	–	–	–	–	–	–	–	logEC10 [1]: no effect; IC10, linear ([3]; ERα bioassay cytotoxicity, dosing range all, linear model): no cytotoxicity; logIC10 ([3]; ERα bioassay cytotoxicity, dosing range all, log-logistic model): no cytotoxicity; Toxic ratio (TR) TRAhR [4]: 0.12
CC(C)(c1ccc(O)cc1)c1ccc(O)cc1 [BPA, 4,4'-(Propane-2,2-diyl)diphenol, reference compound]	–	–	–	–	–	–	–	–	–	–	–	–	2.8e-05	2.8e-05	2.1e-05	2.79e-05	2.82e-05	–	–	–	EC10 (MMP inhibition) [1]: 28 µM; Specificity ratio (SRbaseline) SRMMP [1]: 0.92; Specificity ratio (SRcytotoxicity) SRMMP ([1]; human, 24 h): 2.92; log(1/EC10) MMP [1]: 0.71; Relative effect potency REPMMP [1]: 1.00; SR (MMP inhibition) ([1]; specificity ratio): 3; Toxic ratio (TR) TRARE ([2]; human, 24 h): 0.37; Toxic ratio (TR) TRMMP ([2]; human, 24 h): 0.31; IC10, linear [3]: no cytotoxicity; logIC10 [3]: no cytotoxicity; Toxic ratio (TR) TRERα ([3]; human, 24 h): 0.28; logIC10 ([3]; human, 24 h): -4.33; IC10, linear [4]: no cytotoxicity; logIC10 ([4]; rat, 24 h): -3.77; Toxic ratio (TR) TRPPARγ ([5]; human, 24 h): 0.38; logIC10 ([5]; human, 24 h): -4.45
Oc1ccc(Cc2ccc(O)cc2)cc1 [BPF, Bis(4-hydroxyphenyl)methane]	–	6.90E-04	-3.18	5.00E-04	-3.28	2.92E-04	2.92E-04	-3.53	292	6.05E-06	1.05E-04	-4.01	–	–	0.000167	0.000167	0.000166	6.56E-04	164	97.7	IC10, linear transformed ([2]; MMP bioassay cytotoxicity): 5.26E-04; IC10, MCF7, ARE ([2]; cytotoxicity): 656 µM; IC10, MCF7, MMP ([2]; cytotoxicity): 526 µM; IC10, linear transformed [3, 17]: 1.16E-05; IC10, linear [3, 18]: 1.61E-04; logIC10 [3, 19]: -3.78
CCC(C)(c1ccc(O)cc1)c1ccc(O)cc1 [BPB, 4,4'-(Butane-2,2-diyl)diphenol]	–	3.87E-05	-4.43	3.05E-05	-4.46	8.31E-05	6.98E-05	-4.08	69.8	2.50E-06	1.29E-05	-4.83	1.64e-05	1.64e-05	9.79e-06	1.62e-05	1.62e-05	3.73E-05	20.9	14.8	Specificity ratio (SRbaseline) SRMMP [1]: 1.33; Specificity ratio (SRcytotoxicity) SRMMP ([1]; against experimental cytotoxicity): 2.14; Relative effect potency REPMMP [1]: 1.71; IC10, linear transformed ([2]; MMP bioassay cytotoxicity): 3.51E-05; Toxic ratio (TR) TRARE ([2]; against baseline cytotoxicity, ARE readout): 0.58; Toxic ratio (TR) TRMMP ([2]; against baseline cytotoxicity, MMP readout): 0.62; IC10, MCF7, ARE ([2]; cytotoxicity): 37.3 µM; IC10, MCF7, MMP ([2]; cytotoxicity): 35.1 µM; IC10, linear transformed ([3]; Bioassay ERα, cytotoxicity, dosing range high): 6.28E-06; IC10, linear ([3]; Bioassay ERα, cytotoxicity, dosing range high, linear model fit): no cytotoxicity; logIC10 ([3]; Bioassay ERα, cytotoxicity, dosing range high, log-logistic model fit): -4.68; IC10, linear ([3]; Bioassay ERα, cytotoxicity, dosing range low, linear model fit): no cytotoxicity; logIC10 ([3]; Bioassay ERα, cytotoxicity, dosing range low, log-logistic model fit): no cytotoxicity; Toxic ratio (TR) TRERα ([3]; against baseline cytotoxicity): 0.43; Toxic ratio (TR) TRAhR [4]: 0.31; Toxic ratio (TR) TRPPARγ ([5]; against baseline cytotoxicity): 0.61
Cc1ccc(S(=O)(=O)NC(=O)Nc2cccc(OS(=O)(=O)c3ccc(C)cc3)c2)cc1 [Pergafast, N-(p-toluenesulfonyl)-N'-(3-(p-toluenesulfonyloxy)phenyl)urea]	no effect	4.06E-05	no cytotoxicity	no cytotoxicity	no cytotoxicity	–	no cytotoxicity	no cytotoxicity	–	1.21E-06	2.22E-05	-4.72	–	–	–	–	–	–	12.1	19.1	logEC10 [1]: no effect; log(1/EC10) MMP [1]: 0.92; IC10, linear transformed [3, 17]: 8.23E-06; IC10, linear [3, 18]: 1.21E-05; logIC10 [3, 19]: -4.96; Toxic ratio (TR) TRERα ([3]; against baseline cytotoxicity): 4.31; Toxic ratio (TR) TRPPARγ ([5]; against baseline cytotoxicity): 2.74
CC(c1ccc(O)cc1)c1ccc(O)cc1 [BPE, 4,4′-Ethylidenbisphenol]	no effect	1.10E-04	-4.10	8.57E-05	-4.10	1.06E-04	8.43E-05	-3.97	84.3	5.10E-06	6.46E-05	-4.15	3.21e-05	3.21e-05	–	3.01e-05	3.24e-05	7.96E-05	67.4	70.8	IC10, linear transformed ([2]; MMP bioassay cytotoxicity): 7.86E-05; IC10, MCF7, ARE ([2]; cytotoxicity): 79.6 µM; IC10, MCF7, MMP ([2]; cytotoxicity): 78.6 µM; IC10, linear transformed [3, 17]: 3.62E-05; IC10, linear [3, 18]: 6.74E-05; logIC10 [3, 19]: -4.23

— PMC12392461, “Beyond Estrogenicity: A Comparative Assessment of Bisphenol A and Its Alternatives in In Vitro Assays Questions Safety of Replacements” (Environmental Science & Technology, 2025)
